Measurements taken from article PMC11007962, “First-in-human study of GFH018, a small molecule inhibitor of transforming growth factor-β receptor I inhibitor, in patients with advanced solid tumors” (BMC Cancer, 2024).
Like-named read-outs stand apart in the source and are kept apart here.

Test system: patients with advanced solid tumors
[1] = 5 mg BID 14d-on/14d-off (N = 4)
[2] = 10 mg BID 14d-on/14d-off (N = 3)
[3] = 20 mg BID 14d-on/14d-off (N = 4)
[4] = 30 mg BID 14d-on/14d-off (N = 7)

Cc1cccc(-c2nn3c(c2-c2ccc4ncnn4c2/C=C/C(N)=O)CCC3)n1 [GFH018]
At least one TEAE [1]: 4 (100%) n (%)
At least one TRAE [1]: 4 (100%) n (%)
TEAE: ALP increased [1]: 0 n (%)
TEAE: ALT increased [1]: 0 n (%)
TEAE: AST increased [1]: 0 n (%)
TEAE: Abdominal distention [1]: 0 n (%)
TEAE: Abdominal pain [1]: 0 n (%)
TEAE: Anemia [1]: 0 n (%)
TEAE: Asthenia [1]: 0 n (%)
TEAE: Bilirubin conjugated increased [1]: 1 (25.0%) n (%)
TEAE: Blood albumin decreased [1]: 2 (50.0%) n (%)
TEAE: Blood bilirubin increased [1]: 0 n (%)
TEAE: C-reactive protein increased [1]: 2 (50.0%) n (%)
TEAE: Constipation [1]: 0 n (%)
TEAE: Decreased appetite [1]: 1 (25.0%) n (%)
TEAE: GGT increased [1]: 1 (25.0%) n (%)
TEAE: Hypoalbuminemia [1]: 0 n (%)
TEAE: LDH increased [1]: 1 (25.0%) n (%)
TEAE: Lymphocyte count decreased [1]: 4 (100%) n (%)
TEAE: Platelet count decreased [1]: 1 (25.0%) n (%)
TEAE: Proteinuria [1]: 1 (25.0%) n (%)
TEAE: Sinus tachycardia [1]: 2 (50.0%) n (%)
TEAE: Urine protein present [1]: 2 (50.0%) n (%)
TEAE: White blood cell count decreased [1]: 1 (25.0%) n (%)
TEAE: White blood cells urine positive [1]: 0 n (%)
TRAE: ALP increased [1]: 0 n (%)
TRAE: ALT increased [1]: 0 n (%)
TRAE: AST increased [1]: 0 n (%)
TRAE: Anemia [1]: 0 n (%)
TRAE: GGT increased [1]: 0 n (%)
TRAE: LDH increased [1]: 0 n (%)
TRAE: Lymphocyte count decreased [1]: 1 (25.0%) n (%)
TRAE: Protein urine present [1]: 1 (25.0%) n (%)
TRAE: Proteinuria [1]: 0 n (%)
Treatment-emergent Proteinuria (grouped PTs), G1 [1]: 1 (25.0) n (%)
Treatment-emergent Proteinuria (grouped PTs), G2 [1]: 2 (50.0) n (%)
Treatment-emergent Proteinuria (grouped PTs), G3 [1]: 0 n (%)
Treatment-emergent Proteinuria (grouped PTs: proteinuria and urine protein present), any grade [1]: 3 (75.0) n (%)
At least one TEAE [2]: 3 (100%) n (%)
At least one TRAE [2]: 3 (100%) n (%)
TEAE: ALP increased [2]: 1 (33.3%) n (%)
TEAE: ALT increased [2]: 1 (33.3%) n (%)
TEAE: AST increased [2]: 0 n (%)
TEAE: Abdominal distention [2]: 0 n (%)
TEAE: Abdominal pain [2]: 0 n (%)
TEAE: Anemia [2]: 1 (33.3%) n (%)
TEAE: Asthenia [2]: 1 (33.3%) n (%)
TEAE: Bilirubin conjugated increased [2]: 0 n (%)
TEAE: Blood albumin decreased [2]: 1 (33.3%) n (%)
TEAE: Blood bilirubin increased [2]: 0 n (%)
TEAE: C-reactive protein increased [2]: 0 n (%)
TEAE: Constipation [2]: 1 (33.3%) n (%)
TEAE: Decreased appetite [2]: 0 n (%)
TEAE: GGT increased [2]: 2 (66.7%) n (%)
TEAE: Hypoalbuminemia [2]: 0 n (%)
TEAE: LDH increased [2]: 1 (33.3%) n (%)
TEAE: Lymphocyte count decreased [2]: 0 n (%)
TEAE: Platelet count decreased [2]: 0 n (%)
TEAE: Proteinuria [2]: 0 n (%)
TEAE: Sinus tachycardia [2]: 0 n (%)
TEAE: Urine protein present [2]: 2 (66.7%) n (%)
TEAE: White blood cell count decreased [2]: 0 n (%)
TEAE: White blood cells urine positive [2]: 0 n (%)
TRAE: ALP increased [2]: 1 (33.3%) n (%)
TRAE: ALT increased [2]: 1 (33.3%) n (%)
TRAE: AST increased [2]: 0 n (%)
TRAE: Anemia [2]: 1 (33.3%) n (%)
TRAE: GGT increased [2]: 2 (66.7%) n (%)
TRAE: LDH increased [2]: 1 (33.3%) n (%)
TRAE: Lymphocyte count decreased [2]: 0 n (%)
TRAE: Protein urine present [2]: 1 (33.3%) n (%)
TRAE: Proteinuria [2]: 0 n (%)
Treatment-emergent Proteinuria (grouped PTs), G1 [2]: 0 n (%)
Treatment-emergent Proteinuria (grouped PTs), G2 [2]: 2 (66.7) n (%)
Treatment-emergent Proteinuria (grouped PTs), G3 [2]: 0 n (%)
Treatment-emergent Proteinuria (grouped PTs: proteinuria and urine protein present), any grade [2]: 2 (66.7) n (%)
At least one TEAE [3]: 4 (100%) n (%)
At least one TRAE [3]: 4 (100%) n (%)
TEAE: ALP increased [3]: 1 (25.0%) n (%)
TEAE: ALT increased [3]: 1 (25.0%) n (%)
TEAE: AST increased [3]: 0 n (%)
TEAE: Abdominal distention [3]: 1 (25.0%) n (%)
TEAE: Abdominal pain [3]: 0 n (%)
TEAE: Anemia [3]: 1 (25.0%) n (%)
TEAE: Asthenia [3]: 2 (50.0%) n (%)
TEAE: Bilirubin conjugated increased [3]: 1 (25.0%) n (%)
TEAE: Blood albumin decreased [3]: 1 (25.0%) n (%)
TEAE: Blood bilirubin increased [3]: 1 (25.0%) n (%)
TEAE: C-reactive protein increased [3]: 0 n (%)
TEAE: Constipation [3]: 0 n (%)
TEAE: Decreased appetite [3]: 0 n (%)
TEAE: GGT increased [3]: 0 n (%)
TEAE: Hypoalbuminemia [3]: 0 n (%)
TEAE: LDH increased [3]: 0 n (%)
TEAE: Lymphocyte count decreased [3]: 0 n (%)
TEAE: Platelet count decreased [3]: 0 n (%)
TEAE: Proteinuria [3]: 2 (50.0%) n (%)
TEAE: Sinus tachycardia [3]: 0 n (%)
TEAE: Urine protein present [3]: 2 (50.0%) n (%)
TEAE: White blood cell count decreased [3]: 1 (25.0%) n (%)
TEAE: White blood cells urine positive [3]: 1 (25.0%) n (%)
TRAE: ALP increased [3]: 0 n (%)
TRAE: ALT increased [3]: 0 n (%)
TRAE: AST increased [3]: 0 n (%)
TRAE: Anemia [3]: 0 n (%)
TRAE: GGT increased [3]: 0 n (%)
TRAE: LDH increased [3]: 0 n (%)
TRAE: Lymphocyte count decreased [3]: 0 n (%)
TRAE: Protein urine present [3]: 1 (25.0%) n (%)
TRAE: Proteinuria [3]: 2 (50.0%) n (%)
Treatment-emergent Proteinuria (grouped PTs), G1 [3]: 3 (75.0) n (%)
Treatment-emergent Proteinuria (grouped PTs), G2 [3]: 1 (25.0) n (%)
Treatment-emergent Proteinuria (grouped PTs), G3 [3]: 0 n (%)
Treatment-emergent Proteinuria (grouped PTs: proteinuria and urine protein present), any grade [3]: 4 (100.0) n (%)
At least one TEAE [4]: 7 (100%) n (%)
At least one TRAE [4]: 7 (100%) n (%)
TEAE: ALP increased [4]: 1 (14.3%) n (%)
TEAE: ALT increased [4]: 2 (28.6%) n (%)
TEAE: AST increased [4]: 3 (42.9%) n (%)
TEAE: Abdominal distention [4]: 2 (28.6%) n (%)
TEAE: Abdominal pain [4]: 2 (28.6%) n (%)
TEAE: Anemia [4]: 3 (42.9%) n (%)
TEAE: Asthenia [4]: 2 (28.6%) n (%)
TEAE: Bilirubin conjugated increased [4]: 2 (28.6%) n (%)
TEAE: Blood albumin decreased [4]: 0 n (%)
TEAE: Blood bilirubin increased [4]: 3 (42.9%) n (%)
TEAE: C-reactive protein increased [4]: 0 n (%)
TEAE: Constipation [4]: 4 (57.1%) n (%)
TEAE: Decreased appetite [4]: 1 (14.3%) n (%)
TEAE: GGT increased [4]: 1 (14.3%) n (%)
TEAE: Hypoalbuminemia [4]: 3 (42.9%) n (%)
TEAE: LDH increased [4]: 3 (42.9%) n (%)
TEAE: Lymphocyte count decreased [4]: 1 (14.3%) n (%)
TEAE: Platelet count decreased [4]: 1 (14.3%) n (%)
TEAE: Proteinuria [4]: 4 (57.1%) n (%)
TEAE: Sinus tachycardia [4]: 1 (14.3%) n (%)
